Where two headings read alike, the source gives them in different places.
Tests used:
[1] = tested on: HBV (HepG2.117 cell line, inducibly HBV producing); assay: Anti-HBV activity: intracellular HBV DNA by real-time PCR in HepG2.117 cells after 3 days of treatment; assay type: cell-based, hepatitis B virus
Experimental: The anti HBV activity was measured using the HepG2.117 cell line, a stable, inducibly HBV producing cell line, which replicates HBV in the absence of doxycycline (Tet-off system). The HepG2 cell line is available from ATCCR under number HB-8065. Transfection of the HepG2 cell line can be as described in Sun and Nassal 2006 Journal of Hepatology 45 (2006) 636-645 “Stable HepG2- and Huh7-based human hepatoma cell lines for efficient regulated expression of infectious hepatitis B virus”.
For the antiviral assay, HBV replication was induced, followed by a treatment with serially diluted compound in 96-well plates. After 3 days of treatment, the antiviral activity was determined by quantification of intracellular HBV DNA using real-time PCR and an HBV specific primer set and probe.

in vitro = assay type: cell-based; conditions: human, HepG2 or HepG2.117 cells, mean value
Experimental: Cytotoxicity of the compounds was tested using HepG2 or HepG2.117 cells, incubated for 3 or 4 days in the presence of compounds. The viability of the cells was assessed using the PERKIN ELMER ATPlite Luminescence Assay System.”

[2] = Hepatitis B virus, HepG2.117, 72 h, HepG2.117 cells, intracellular HBV DNA by real-time PCR, 3 days of treatment, mean value; read-out: EC50 (μM, mean value)
[3] = ATPlite, 3-days incubation (not marked with *)
[4] = Hepatitis B virus, HepG2.117, 72 h, HepG2.117 cells, 3 days of treatment, intracellular HBV DNA by real-time PCR; mean value; read-out: EC50 (μM, mean value)
[5] = 3-days incubation (unmarked values), ATPlite

Row | Compound | EC50 [1, 2] [µM] | CC50 at 3 days (in vitro; [3]) [µM] | EC50 [1, 4] [µM] | CC50 at 3 days (in vitro; [5]) [µM] | also measured
1 | CNC(=O)c1ccc(-n2c(N[C@@H](C)c3ccc4c(c3)OCO4)nc3c(c2=O)C[C@@H](C)N(C(=O)c2ccc(Cl)c(Cl)c2)C3)cc1 (single isomer, unassigned) [Compound C414b] | 0.06 | > 50 | – | – | –
2 | CNC(=O)c1ccc(-n2c(N[C@@H](C)c3ccc(OC(F)(F)F)cc3)nc3c(c2=O)C[C@@H](C)N(C(=O)c2ccc(Cl)c(Cl)c2)C3)cc1 (single isomer, unassigned) [Compound C440b] | 0.07 | 6.3 | – | – | –
3 | CNC(=O)c1cc(-n2c(NC(C)C)nc3c(c2=O)C[C@@H](C)N(C(=O)c2ccc(Cl)c(Cl)c2)C3)nn1C [Compound C292, 3-[(6R)-7-(3,4-dichlorobenzoyl)-6-methyl-4-oxo-2-[(propan-2-yl)amino]-5,6,7,8-tetrahydropyrido[3,4-d]pyrimidin-3(4H)-yl]-N,1-dimethyl-1H-pyrazole-5-carboxamide] | – | – | 0.04 | > 50 | –
4 | CNC(=O)c1ccc(-n2c(N[C@H](C)c3ccc(C(F)(F)F)cc3)nc3c(c2=O)C[C@@H](C)N(C(=O)c2ccc(Cl)c(Cl)c2)C3)cc1 (single isomer, unassigned) [Compound C413a] | 0.06 | 9 | – | – | –
5 | CC(C)Nc1nc2c(c(=O)n1-c1ccc(S(C)(=O)=O)cc1)[C@@H](C)CN(C(=O)c1ccc(Cl)c(Cl)c1)C2 (single isomer, unassigned) [Compound C154A, (*R)-7-(3,4-dichlorobenzoyl)-2-(isopropylamino)-5-methyl-3-(4-(methylsulfonyl)phenyl)-5,6,7,8-tetrahydropyrido[3,4-d]pyrimidin-4(3H)-one] | – | – | 1.32 | > 50 | –
6 | CNC(=O)c1ccc(-n2c(N[C@H](C)c3ccc(F)c(F)c3)nc3c(c2=O)C[C@@H](C)N(C(=O)c2ccc(Cl)c(Cl)c2)C3)cc1 (single isomer, unassigned) [Compound C417a] | 1.22 | 41.8 | – | – | –
7 | CC(C)Nc1nc2c(c(=O)n1-c1ccc(-n3cccn3)cc1)CCN(C(=O)c1ccc(Cl)c(Cl)c1)C2 [Compound C144, 7-(3,4-dichlorobenzoyl)-2-[(propan-2-yl)amino]-3-[4-(1H-pyrazol-1-yl)phenyl]-5,6,7,8-tetrahydropyrido[3,4-d]pyrimidin-4(3H)-one] | – | – | 0.6 | > 50 | –
8 | CNC(=O)c1ccc(-n2c(NC(C)C)nc3c(c2=O)C[C@@H](C)N(C(=O)c2ccc(Cl)c(Cl)c2)C3)c(OC)c1 (single isomer, unassigned) [Compound C314a] | – | – | – | > 50 | EC50 ([1]; HepG2.117 cells, 3 days of treatment, intracellular HBV DNA by real-time PCR; mean value; read-out: EC50 (μM, mean value)): 0.1 µM
9 | CNC(=O)c1cc(-n2c(N[C@@H](C)c3ccc(C(F)(F)F)cc3)nc3c(c2=O)C[C@@H](C)N(C(=O)c2ccc(Cl)c(Cl)c2)C3)nn1C [Compound C623] | 0.04 | > 50 | – | – | –
10 | CNC(=O)c1cc(Cl)c(-n2c(NC(C)C)nc3c(c2=O)C[C@@H](C)N(C(=O)c2ccc(Cl)c(C(F)(F)F)c2)C3)c(Cl)c1 [Compound C688] | 0.04 | 29.3 | – | – | –
11 | CC(C)NC(=O)c1ncc(-n2c(NC(C)C)nc3c(c2=O)C[C@@H](C)N(C(=O)c2ccc(Cl)c(C(F)(F)F)c2)C3)n1C [Compound C703] | – | – | 0.09 | – | CC50 at 3 days (in vitro; 3-days incubation (unmarked values), ATPlite viability): > 50 µM
12 | CNC(=O)c1ccc(-n2c(N3CCC[C@@H]3C3CC3)nc3c(c2=O)C[C@@H](C)N(C(=O)c2ccc(Cl)c(Cl)c2)C3)cc1 (single isomer, unassigned) [Compound C352, 4-[(6R)-2-[(2*R)-2-cyclopropylpyrrolidin-1-yl]-7-(3,4-dichlorobenzoyl)-6-methyl-4-oxo-5,6,7,8-tetrahydropyrido[3,4-d]pyrimidin-3(4H)-yl]-N-methylbenzamide] | – | – | 0.29 | 27.5 | –
13 | CC(C)Nc1nc2c(c(=O)n1-c1ccc(N3CC[C@@H](O)C3)cc1)C[C@@H](C)N(C(=O)c1ccc(Cl)c(Cl)c1)C2 [Compound C201, (6R)-7-(3,4-dichlorobenzoyl)-3-{4-[(3R)-3-hydroxypyrrolidin-1-yl]phenyl}-6-methyl-2-[(propan-2-yl)amino]-5,6,7,8-tetrahydropyrido[3,4-d]pyrimidin-4(3H)-one] | – | – | 0.2 | 36.8 | –

Reference: US20230091047A1 (priority 2019, published 2023)
